Experimental data taken from patent US9156872B2, “2′-azido substituted nucleoside derivatives and methods of use thereof for the treatment of viral diseases” (priority 2011, dated 2015).
pEC50: −log10 of the molar value. Where two headings read alike, the source gives them in different places.

Test system: HCV replicon cells
Experiment: Cell-based HCV replicon assay (replicon RNA by Taqman real time PCR)
Settings: read-out: 1b EC50
[1] = Hepatitis C virus, 72 h, HCV replicon 1b, cells harvested on day 3

| Compound | pEC50 (Hepatitis C virus, 72 h) | pEC50 | also measured |
| --- | --- | --- | --- |
| COP1(=O)OC[C@H]2O[C@@H](n3ccc(=O)[nH]c3=O)[C@](C)(N=[N+]=[N-])[C@@H]2O1 (stereo partly shown) [Compound 18] | < 4.00 | – | – |
| C[C@@]1(N=[N+]=[N-])[C@@H]2OP(=O)(OC3CCCC3)OC[C@H]2O[C@H]1n1ccc(=O)[nH]c1=O (single isomer, unassigned) [Compound 562] | – | – | pEC50 (HCV replicon 1b, cells harvested on day 3): 6.40 |
| CCOC(=O)c1cccc(OP(=O)(N[C@@H](C)C(=O)OC)OC[C@H]2O[C@@H](n3ccc(=O)[nH]c3=O)[C@](C)(N=[N+]=[N-])[C@@H]2O)c1 (single isomer, unassigned) [Compound 214] | – | 4.92 | – |
| CCOc1nc(N)nc2c1ncn2[C@@H]1O[C@H](COP(=O)(N[C@@H](C)C(=O)OC2CCCCC2)Oc2ccc(Cl)cc2)[C@@H](O)[C@@]1(C)N=[N+]=[N-] (single isomer, unassigned) [Compound 313] | 6.18 | – | – |
| CCOC(=O)[C@H](C)NP(=O)(OC[C@H]1O[C@@H](n2cnc3c(OC)nc(N)nc32)[C@](C)(N=[N+]=[N-])[C@@H]1O)Oc1ccc(F)cc1 (single isomer, unassigned) [Compound 271] | – | 5.36 | – |
| C[C@H](NP(=O)(OC[C@H]1O[C@@H](n2ccc(=O)[nH]c2=O)[C@](C)(N=[N+]=[N-])[C@@H]1O)Oc1ccc(F)cc1)C(=O)OC1CCCCC1 (stereo partly shown) [Compound 89] | – | < 4.00 | – |
| COC(=O)[C@H](C)NP(=O)(OC[C@H]1O[C@@H](n2ccc(=O)[nH]c2=O)[C@](C)(N=[N+]=[N-])[C@@H]1O)Oc1cc(C)ccc1C(C)C (stereo partly shown) [Compound 379] | 5.92 | – | – |
| COC(=O)[C@H](C)NP(=O)(OC[C@H]1O[C@@H](n2cnc3c(N4CCC4)nc(N)nc32)[C@](C)(N=[N+]=[N-])[C@@H]1O)Oc1ccccc1Cl (stereo partly shown) [Compound 389] | – | 5.64 | – |
| COC(=O)[C@H](C)NP(=O)(OC[C@H]1O[C@@H](n2ccc(=O)[nH]c2=O)[C@](C)(N=[N+]=[N-])[C@@H]1O)Oc1cccc2ccccc12 (stereo partly shown) [Compound 235] | – | 8.52 | – |
| CCCCOC(=O)[C@H](C)NP(=O)(OC[C@H]1O[C@@H](n2cnc3c(OC)nc(N)nc32)[C@](C)(N=[N+]=[N-])C1O)Oc1ccccc1 (single isomer, unassigned) [Compound 263] | – | 5.82 | – |
| CC(C)OC(=O)[C@H](C)NP(=O)(OC[C@H]1O[C@@H](n2ccc(N)nc2=O)[C@](C)(N=[N+]=[N-])[C@@H]1O)Oc1ccccc1Cl (single isomer, unassigned) [Compound 333] | – | 5.89 | – |
| COC(=O)[C@H](C)NP(=O)(OC[C@H]1O[C@@H](n2cnc3c(OC)nc(N)nc32)[C@](C)(N=[N+]=[N-])C1O)Oc1ccccc1 (single isomer, unassigned) [Compound 261] | – | 6.05 | – |
| CC(=O)CCc1ccc(OP(=O)(N[C@@H](C)C(=O)OC(C)C)OC[C@H]2O[C@@H](n3ccc(=O)[nH]c3=O)[C@](C)(N=[N+]=[N-])[C@@H]2O)cc1 (stereo partly shown) [Compound 178] | 5.52 | – | – |
| CCOc1nc(N)nc2c1ncn2[C@@H]1O[C@H](COP(=O)(N[C@@H](C)C(=O)OCC(C)(C)C)Oc2ccccc2Cl)[C@@H](O)[C@@]1(C)N=[N+]=[N-] (stereo partly shown) [Compound 357] | 4.00 | – | – |
| CCOC(=O)c1ccccc1OP(=O)(N[C@@H](C)C(=O)OC)OC[C@H]1O[C@@H](n2ccc(=O)[nH]c2=O)[C@](C)(N=[N+]=[N-])[C@@H]1O (single isomer, unassigned) [Compound 226] | – | 4.59 | – |
| C[C@H](NP(=O)(O)OC[C@H]1O[C@@H](n2ccc(=O)[nH]c2=O)[C@](C)(N=[N+]=[N-])[C@@H]1O)C(=O)OC1CCCCC1 (single isomer, unassigned) [Compound 329] | – | – | pEC50 [1]: < 4.00 |
| CCCOC(=O)[C@H](C)NP(=O)(OC[C@H]1O[C@@H](n2ccc(=O)[nH]c2=O)[C@](C)(N=[N+]=[N-])[C@@H]1O)Oc1ccccc1 (single isomer, unassigned) [Compound 147] | 5.25 | – | – |
| CCOC(=O)[C@H](C)NP(=O)(OC[C@H]1O[C@@H](n2ccc(N)nc2=O)[C@](C)(N=[N+]=[N-])[C@@H]1O)Oc1ccccc1 (stereo partly shown) [Compound 13] | 5.19 | – | – |
| CCCCOC(=O)[C@H](C)NP(=O)(OC[C@H]1O[C@@H](n2cnc3c(OCC)nc(N)nc32)[C@](C)(N=[N+]=[N-])[C@@H]1O)Oc1ccccc1 (single isomer, unassigned) [Compound 167] | 5.92 | – | – |
| COC(=O)[C@H](C)NP(=O)(OC[C@H]1O[C@@H](n2ccc(=O)[nH]c2=O)[C@](C)(N=[N+]=[N-])[C@@H]1O)Oc1ccc(Cl)cc1 (single isomer, unassigned) [Compound 326] | – | 6.30 | – |
| COc1nc(N)nc2c1ncn2[C@@H]1O[C@H](COP(=O)(N[C@@H](C)C(=O)OCc2ccccc2)Oc2ccccc2)[C@@H](O)[C@@]1(C)N=[N+]=[N-] (single isomer, unassigned) [Compound 278] | – | 5.14 | – |
| CCOc1nc(N)nc2c1ncn2[C@@H]1O[C@H](COP(=O)(N[C@@H](C)C(=O)OCC(C)C)Oc2ccccc2)[C@@H](O)[C@@]1(C)N=[N+]=[N-] (stereo partly shown) [Compound 62] | – | 6.10 | – |
| COc1nc(N)nc2c1ncn2[C@@H]1O[C@H](COP(=O)(N[C@@H](C)C(=O)OCC(C)C)Oc2ccc(Cl)cc2)[C@@H](O)[C@@]1(C)N=[N+]=[N-] (stereo partly shown) [Compound 285] | 5.96 | – | – |

| Compound | pEC50 (Hepatitis C virus, 72 h) | pEC50 | also measured |
| --- | --- | --- | --- |
| C[C@@]1(N=[N+]=[N-])[C@@H]2OP(=O)(Oc3ccccc3)OC[C@H]2O[C@H]1n1ccc(N)nc1=O (stereo partly shown) [Compound 65] | 4.25 | – | – |
| CCOc1nc(N)nc2c1ncn2[C@@H]1O[C@H](COP(=O)(N[C@@H](C)C(=O)OC(C)C)Oc2ccc(F)cc2)[C@@H](O)[C@@]1(C)N=[N+]=[N-] (single isomer, unassigned) [Compound 364] | – | 5.19 | – |
| C[C@H](NP(=O)(OC[C@H]1O[C@@H](n2ccc(N)nc2=O)[C@](C)(N=[N+]=[N-])[C@@H]1O)Oc1ccccc1)C(=O)OC1CCCC1 (stereo partly shown) [Compound 205] | – | 4.82 | – |
| COc1nc(N)nc2c1ncn2[C@@H]1O[C@H](COP(=O)(N[C@@H](C)C(=O)OC(C)C)Oc2ccccc2)C(O)[C@@]1(C)N=[N+]=[N-] (single isomer, unassigned) [Compound 253] | – | 6.22 | – |
| CCOC(=O)c1ccccc1OP(=O)(N[C@@H](C)C(=O)OC)OC[C@H]1O[C@@H](n2cnc3c(OC)nc(N)nc32)[C@](C)(N=[N+]=[N-])[C@@H]1O (stereo partly shown) [Compound 224] | 5.48 | – | – |
| CCOC(=O)[C@H](C)NP(=O)(OC[C@H]1O[C@@H](n2cnc3c(OCC)nc(N)nc32)[C@](C)(N=[N+]=[N-])[C@@H]1O)Oc1ccc(F)cc1 (single isomer, unassigned) [Compound 176] | – | 6.52 | – |
| CCCCOC(=O)[C@H](C)NP(=O)(OC[C@H]1O[C@@H](n2cnc3c(OCC)nc(N)nc32)[C@](C)(N=[N+]=[N-])[C@@H]1O)Oc1cccc2ccccc12 (stereo partly shown) [Compound 12] | 5.89 | – | – |
| COC(=O)[C@H](C)NP(=O)(OC[C@H]1O[C@@H](n2ccc(N)nc2=O)[C@](C)(N=[N+]=[N-])[C@@H]1O)Oc1ccc(Cl)cc1 (single isomer, unassigned) [Compound 186] | – | 5.70 | – |
| CCOC(=O)c1cccc(OP(=O)(N[C@@H](C)C(=O)OC)OC[C@H]2O[C@@H](n3cnc4c(OC)nc(N)nc43)[C@](C)(N=[N+]=[N-])[C@@H]2O)c1 (stereo partly shown) [Compound 221] | 6.10 | – | – |
| C[C@H](NP(=O)(OC[C@H]1O[C@@H](n2ccc(N)nc2=O)[C@](C)(N=[N+]=[N-])[C@@H]1O)Oc1ccc(Cl)cc1)C(=O)OC1CCCCC1 (single isomer, unassigned) [Compound 340] | – | 4.70 | – |
| COC(=O)[C@H](C)NP(=O)(OC[C@H]1O[C@@H](n2cnc3c(NC4CC4)nc(N)nc32)[C@](C)(N=[N+]=[N-])[C@@H]1O)Oc1ccccc1 (stereo partly shown) [Compound 386] | 5.28 | – | – |
| CC(C)OC(=O)[C@H](C)NP(=O)(OC[C@H]1O[C@@H](n2cnc3c(N4CCC4)nc(N)nc32)[C@](C)(N=[N+]=[N-])[C@@H]1O)Oc1ccccc1 (stereo partly shown) [Compound 392] | 5.25 | – | – |
| CCCOC(=O)[C@H](C)NP(=O)(OC[C@H]1O[C@@H](n2cnc3c(OC)nc(N)nc32)[C@](C)(N=[N+]=[N-])[C@@H]1O)Oc1ccccc1 (stereo partly shown) [Compound 78] | 5.96 | – | – |
| CCCCOC(=O)[C@H](C)NP(=O)(OC[C@H]1O[C@@H](n2cnc3c(OCC)nc(N)nc32)[C@](C)(N=[N+]=[N-])[C@@H]1O)Oc1ccccc1 (stereo partly shown) [Compound 27] | 7.00 | – | – |
| COc1nc(N)nc2c1ncn2[C@@H]1O[C@H](COP(=O)(N[C@@H](C)C(=O)OCC(C)(C)C)Oc2ccccc2)C(O)[C@@]1(C)N=[N+]=[N-] (single isomer, unassigned) [Compound 292] | – | 6.40 | – |
| COC(=O)[C@H](C)NP(=O)(OC[C@H]1O[C@@H](n2ccc(N)nc2=O)[C@](C)(N=[N+]=[N-])[C@@H]1O)Oc1ccc(Cl)cc1 (single isomer, unassigned) [Compound 185] | 5.54 | – | – |
| CC(C)OC(=O)[C@H](C)NP(=O)(OC[C@H]1O[C@@H](n2ccc(N)nc2=O)[C@](C)(N=[N+]=[N-])[C@@H]1O)Oc1ccccc1Cl (single isomer, unassigned) [Compound 332] | – | 4.70 | – |
| CCOC(=O)[C@H](C)NP(=O)(OC[C@H]1O[C@@H](n2cnc3c(OCC)nc(N)nc32)[C@](C)(N=[N+]=[N-])[C@@H]1O)Oc1ccccc1Cl (single isomer, unassigned) [Compound 358] | 5.64 | – | – |
| C[C@H](NP(=O)(OC[C@H]1O[C@@H](n2ccc(N)nc2=O)[C@](C)(N=[N+]=[N-])[C@@H]1O)Oc1ccccc1)C(=O)OC1CCCCC1 (single isomer, unassigned) [Compound 337] | 4.57 | – | – |
| CC(C)OP1(=O)OC[C@H]2O[C@@H](n3ccc(=O)[nH]c3=O)[C@](C)(N=[N+]=[N-])[C@@H]2O1 (stereo partly shown) [Compound 43] | – | – | pEC50 [1]: < 4.00 |
| COC(=O)[C@H](C)NP(=O)(OC[C@H]1O[C@@H](n2ccc(=O)[nH]c2=O)[C@](C)(N=[N+]=[N-])[C@@H]1O)Oc1ccccc1 (stereo partly shown) [Compound 5] | 5.48 | – | – |
| COC(=O)[C@H](C)NP(=O)(OC[C@H]1O[C@@H](n2ccc(=O)[nH]c2=O)[C@](C)(N=[N+]=[N-])[C@@H]1O)Oc1ccccc1Cl (stereo partly shown) [Compound 40] | 5.40 | – | – |
| COC(=O)c1ccccc1OP(=O)(N[C@@H](C)C(=O)OC)OC[C@H]1O[C@@H](n2ccc(=O)[nH]c2=O)[C@](C)(N=[N+]=[N-])[C@@H]1O (single isomer, unassigned) [Compound 216] | – | 5.89 | – |
